What all share (assay type): in vivo, rat
In assay [1] the test system is osteoporosis model rats. As to the kind of experiment: Bone density parameters of right femur in osteoporosis model rats. Particulars: bilateral ovariectomy female SD rats, intragastric once a day, 8 weeks, femoral metaphysis, 10 mg/kg. How it is done:
(§1) Samples: the traditional Chinese medicine (TCM) composition prepared in Example 1, a positive drug (Estradiol Valerate) and a competing drug (Caltrate).
(§2) Female SD rats were randomly divided into sham operation group, model group, positive control group (estradiol valerate), competing drug group (Caltrate), high dose TCM composition (prepared in Example 1) group and low dose TC′M composition (prepared in Example 1) group, and 8 in each group.
(§3) Female SD rats were treated by bilateral ovariectomy to establish osteoporosis model rats.
(§4) The osteoporosis model rats were subjected to intragastric administration once a day and the administration cycle lasted for 8 weeks.
(§5) After 8 weeks, the rats were sacrificed, and blood was collected from the abdominal aorta and subjected to standing for 1 hour. Then the blood sample was centrifuged to collect serum, which was detected for the bone metabolic biochemical indicators, including bone glaprotein (BGP), bone specific alkaline phosphatase (BALP), carboxyterminal propeptide of type I procollagen (PICP) and N-telopeptides of type I collagen (NTX); estrogen indicators, including serum estradiol E2 and follicle stimulating hormone (FSH); and blood biochemical indexes, including serum phosphorus and serum calcium. Moreover, the complete bilateral femurs were collected, on which the muscle tissues were, completely removed. The left femur was used for femoral mechanical testing, and the right femur was tested for related parameters such as bone density. The above experimental data was used to evaluate the efficacy of the TCM composition of the disclosure.
(§6) The dosage of the TCM composition was determined based on the recommended crude drug dosage in the pharmacopoeia, and 1 g of extract was obtained after the extraction.
(§7) Positive control group: 0.1 g/day for human.
(§8) Competing drug group (Caltrate): one tablet (1 g)/day and 600 mg of calcium/tablet.
(§9) High dose TCM composition group: 1 g/day for human; low dose TCM composition group: 0.5 g/day for human.
(§10) The dosage for rats was calculated as follows: • dosage for rat (daily dose for human/60)*6;

Assay [2] has as its system osteoporosis model rats. As to the kind of experiment: Serum estrogen indicators (E2, FSH) by ELISA in osteoporosis model rats. Particulars: bilateral ovariectomy female SD rats, intragastric once a day, 8 weeks, 10 mg/kg. How it is done:
as §1, §2, §3, §4
(§11) After 8 weeks, the rats were sacrificed, and blood was collected from the abdominal aorta and subjected to standing for 1 hour. Then the blood sample was centrifuged to collect serum, which was detected for the bone metabolic biochemical indicators, including bone glaprotein (BGP), bone specific alkaline phosphatase (BALP), carboxyterminal propeptide of type I procollagen (PICP) and N-telopeptides of type I collagen (NTX); estrogen indicators, including serum estradiol E2 and follicle stimulating hormone (FSH); and blood biochemical indexes, including serum phosphorus and serum calcium. […]
as §10
Background: ELISA stands for enzyme-linked immunosorbent assay.

Assay [3] deals with osteoporosis model rats. As to the kind of experiment: Serum biochemical indexes (phosphorus, calcium) in osteoporosis model rats. As for the experimental part:
as §1, §2, §3, §4, §5, §6, §7, §8, §9, §10

For assay [4], the system named is osteoporosis model rats. As to the kind of experiment: Femoral mechanical testing (left femur) in osteoporosis model rats. Particulars: bilateral ovariectomy female SD rats, intragastric once a day, 8 weeks, 10 mg/kg. How it is done: as §1, §2, §3, §4, §11, §10
Assay [5] relates to osteoporosis model rats. As to the kind of experiment: Bone metabolic biochemical indicators (BGP, BALP, PICP, NTX) by ELISA in osteoporosis model rats. Particulars: bilateral ovariectomy female SD rats, intragastric once a day, 8 weeks, serum, 10 mg/kg. As for the experimental part: as §1, §2, §3, §4, §5, §6, §7, §8, §9, §10
The mark [6] stands for this setting: bilateral ovariectomy female SD rats, intragastric once a day, 8 weeks, 10 mg/kg.

Marks after values point to notes of the source that are not given here.

With `CCCCC(=O)O[C@H]1CC[C@H]2[C@@H]3CCc4cc(O)ccc4[C@H]3CC[C@]12C` [Positive control, Estradiol Valerate], in assay [1], the “BMD (bone mineral density)” value was 0.198 ± 0.051 g/cm^2, the “BV/TV (bone volume fraction)” value is reported as 16.863 ± 5.237 %, the “Tb. N (trabecular number)” value was 2.392 ± 0.809* 1/mm and the “Tb. Sp (trabecular separation/spacing)” value is recorded as 455.6 ± 182.901 μm. Besides, in assay [2], the “E2 (serum estradiol)” value is recorded as 32.45 ± 10.24 pg/mL and the FSH worked out at 96.55 ± 11.84 ng/mL. For the same compound, in assay [3] (setting [6]), the “Ca (serum calcium)” value came to 2.33 ± 0.13 mmol/L and the “P (serum phosphorus)” value amounted to 3.1 ± 0.53 mmol/L. In addition, the “serum phosphorus content compared to the model group and the sham-operation group” value in assay [3] (positive control group, 8 weeks' administration, P<0.05) was “significantly higher”. Besides, in assay [4], the “Load (maximum load of femur)” value came to 109.67 ± 26.78 N. Moreover, in assay [5], the “BALP (bone specific alkaline phosphatase)” value was 764.2 ± 123.81 pg/mL, the “BGP (bone glaprotein)” value is reported as 9.93 ± 2.23 ng/mL, the “NTX (N-telopeptides of type I collagen)” value is 26.92 ± 5.68 ng/mL and the “PICP (carboxyterminal propeptide of type I procollagen)” value is 739.33 ± 175.34 ng/mL.

Values taken from US20210069275A1, “TRADITIONAL CHINESE MEDICINE COMPOSITION FOR IMPROVING BONE HEALTH AND PREPARATION AND USES THEREOF” (Chenland Nutritionals Inc., priority 2020, published 2021).
